Assay results as given in patent US20260042801A1, “COMPOSITIONS AND METHODS FOR DYE-BOUND CYCLIZED PEPTIDES FOR MEDICAL USE” (The Texas A&M University System, priority 2022, published 2026).

How the values were obtained:
[1] = tested on: severe T8 contusion/compression SCI; assay: Preclinical SCI model: Novel Object Recognition (NOR); format: in vivo, mouse; details: 7 weeks post injury, 24-hr interval
Procedure: 8-week-old male mice with a severe T8 contusion/compression SCI were injected IP daily with 5c(i) for 7 weeks (5 and 25 mg/kg/day). 7 weeks post injury, NOR was conducted. 10A) The total number of independent visits to novel object. 10B) Latency to visit novel object. 10C) The ratio of time spent with objects (novel/familiar ratio). […] N=6-8. Graphs show mean and SEM. # (p<0.1) * (p<0.05) ** (p<0.01) *** (p<0.001) **** (p<0.0001). Student's T-test.
Male mice at 8 weeks of age underwent surgery to sustain an SCI. The spinalis thoracis muscle was lacerated to perform a laminectomy at T7-T9 to expose the spinal cord while keeping the dura intact. The mice were then clamped using 2 pairs of Adson forceps before using the Infinite Horizon Impactor at 50 kdyn of force (the contusion) with a 2 second dwell time (the compression) to induce a severe T8 contusion and compression. Self-degrading Catgut sutures were utilized for the closure of the spinalis thoracis muscle before the skin was glued shut with 3M VETBOND™ (n-butyl cyanoacrylate adhesive veterinary tissue adhesive) Tissue Adhesive. All procedures and instruments used for surgery were sterilized prior to surgery to prevent infections. After surgery, mice recovered in a warmed cage and then moved to a cage set at room temperature provided with food and water ad libitum. All surgeries were performed in the morning (8 am-12 pm) to limit potential circadian clock impact. Behavioral assays were performed at the same time in the morning for all the cohorts for the same reason. For the administration of pharmaceutical agents, the vehicle was 0.6 mL/kg of 100% dimethyl sulfoxide (DMSO). 5c(i) (at 5 and 25 mg/kg/day) diluted in vehicle or vehicle alone was administered once daily through intraperitoneal (IP) injections at a volume of 0.6 mL/kg/day. […]
7 weeks after SCI, all post injury cognitive testing was conducted. Novel Object Recognition (NOR): Mice were placed in the empty open field white box for 5 min and recorded. […] Behavioral patterns with respect to the novel and familiar objects was recorded and analyzed. […]

GSK-3β = assay: Astrocyte GSK-3β western blot; format: cell-based, mouse; details: astrocytes from 6-month-old male mice, 5 μM, 3 days, cell lysate
Procedure: FIGS. 4A-4D: 5c(i) induces Synapsin I production and reduces C3 and GSK-3s expression from astrocytes promoting neuron survival and neurite growth. Primary adult cortical astrocytes from 6-month-old male mice were incubated with 5 μM 5c(i) for 3 days. Graph represents mean±SEM of percent change in fluorescent intensity (Synapsin I and C3) or chemiluminescence (GSK-3β) relative to Vehicle (4A and 4D). Images represent the 4B) Vehicle and 4C) 5 μM 5c(i) treated groups stained with Synapsin I and DAPI. D) Cortical astrocytes from 6-month-old male mice were plated and treated with 5c(i) or Vehicle for 2 days. Cells were then washed and cortical neurons from 6-month-old male mice were added on top of the astrocytes. […] Scale bar=50 μm.
To determine if 5c(i) can modulate astrocytes, adult astrocytes from 6-month-old male mice were treated with 5c(i) for 3 days and stained with Synapsin I and C3 to measure changes in fluorescent intensity or western blot was conducted on the cell lysate to assess changes in GSK-3β expression (FIG. 4). […] To determine if 5c(i) treated astrocytes can directly benefit neuronal recovery, astrocytes were cultured with 5c(i) for 2 days before removing 5c(i) from the culture and plating adult neurons on top of the astrocytes for 2DIV, resulting in increased neuron survival and neurite growth. […]

[2] = tested on: severe T8 contusion/compression SCI; assay: Preclinical SCI model: liver Masson's trichrome collagen deposition; format: in vivo, mouse; details: 7 weeks post injury
Procedure: N=6-8. […] Student's T-test.
Mice were sacrificed 7 weeks after injury by a lethal dose of Fatal plus (pentobarbital), then, transcardial perfusion was performed with PBS-Heparin (10,000 unit/L, 20 mL, 5 mL/min) followed by a 4% paraformaldehyde fixative solution (30 mL/mouse, at 5 mL/min). Right after perfusion, tissues were immersed in 4% PFA for 24 hours, transferred to 15% sucrose for 24 hours, then transferred to 30% sucrose for 24 hours before being embedded. Subsequently, the spinal cords (at injury site±1 mm) were cut into 25 μm-thick transverse sections using a freezing microtome (THERMO FISHER SCIENTIFIC® (laboratory reagents), Microm HM550). […] The images were acquired using VS120 Virtual Slide Microscope (Olympus) and Axio Observer 7 (ZEISS® (optical products)) and analyzed with QuPath 0.4.3. […] The lesion size was measured by tracing the glial scar border labeled with GFAP surrounding a DAPI^+ inner region. Cavity size was measured by measuring the region within the spinal cord without any visible nuclei yet surrounded by GFAP labeled glial scar. Three spinal cord sections per animal were imaged and analyzed. […] Images were quantified using QuPath software. […] Collagen accumulation was quantified using automated QuPath software to determine the extent of fibrosis.

C-DIRG-C BODIPY® (fluorescent dye) [5c(i)]
latency to visit novel object [1]: reduced latency to visit
preference for the novel object [1]: increased preference
visits to novel object [1]: more visits
GSK-3β expression (GSK-3β): reduction
liver collagen deposition [2]: alleviated
